Marks after values point to notes of the source that are not given here. Where no end group is shown, it is not given here.

In assay [1] the test system is ED-1. In words: Goldblatt model: ventricular content of ED-1. Format: in vivo, rat. The following applies: GB rats, ventricle. From the text:
(§1) Lewis normotensive rats (weight 150±10 g), which were separated randomly into the experimental hypertension model group or GB (Ocaranza et al. J. Hypertens. 20:413-20, 2002) or control group (S) were used. The latter corresponded to pseudo-operated animals. All animals were maintained under controlled conditions of light and darkness and had free access to food and water. Four weeks after surgery and at a blood pressure above 140 mmHg, GB rats were randomized for the chronic administration of angiotensin-(1-9) through an osmotic pump (602 ng kg^−1min^−1) via the jugular vein during two weeks. The animals were euthanized after 6 weeks post-surgery.
Immunostaining was performed using the streptavidin-biotin-peroxidase method with the inflammation marker ED-1. This is a glycoprotein expressed primarily in the lysosomal membrane of active macrophages (Leskovar et al. J. Exp. Biol. 203:1783-1795, 2000).
In order to block endogenous peroxidase, the samples were deparaffinized, rehydrated and treated with 10% H2O2 in methanol for 1 h. Then, the tissues were incubated with monoclonal antibody anti ED-1 (clone MCA341R, Serotec) diluted 1/1000 in 1% BSA prepared in PBS-0.05% Tween 20 overnight at 4° C. in a humid chamber. The sections were washed three times with 1×PBS-0.05% Tween 20, pH 7.4 for 5 min and incubated with the biotinylated secondary antibody for 30 min at room temperature. […]

Assay [2] relates to TGFβ-1. As to the kind of experiment: Goldblatt model: TGFβ-1 protein levels in the aortic wall. Type of assay: in vivo, rat. The following applies: GB rats.
Description: as §1
(§2) For the determination of collagen I and TGFβ-1, 30 μg and 50 μg of total proteins were used, respectively, diluted in SDS reducing buffer (50 mM tris-HCl, pH 7.4, NP-40 10%, NaCl 1M, Na deoxycholate 5%, EDTA 10 mg/mL, SDS 10%, aprotinin 1 mg/mL, leupeptin 0.1 mg/mL, PMSF 10 mM), they were then separated by SDS-PAGE gel electrophoresis 7%, and transferred to nitrocellulose membranes of […] to 300 mA for 1 h. The transfer of proteins was monitored by Ponceau red staining. […]

The test system of assay [3] is collagen I. In words: Goldblatt model: collagen I protein levels in the aortic wall. Type of assay: in vivo, rat. The following applies: GB rats.
Description: as §1, §2

Assay [4] has as its system TGF-β mRNA. In words: Angiotensin II infusion model: TGF-β mRNA levels in the aortic wall. Type of assay: in vivo, rat. The following applies: angiotensin II-infused rats. How it is done:
(§3) Rats were subjected to the model of angiotensin II infusion (Grobe et al.: Am. J. Physiol. 292: H736-42, 2007). The animals were separated randomly into the following experimental groups: controls (Sham or pseudo-operated), infused with angiotensin II (300 ng/kg min), infused with angiotensin II and angiotensin-(1-9) (300 ng/kg min and 602 ng/kg min, respectively), and then infused with angiotensin II, angiotensin-(1-9) and the angiotensin-(1-7) receptor antagonist, A779 (300 ng/kg min, 602 ng/kg min, and 100 ng/kg min, respectively). In all cases the pumps operated at a flow of 0.5 μL/h and were implanted in the right jugular vein through a catheter fitted in an intrascapular subcutaneous pocket under anesthesia with ketamine HCl/xylazine (35 and 7 mg/kg i.p., respectively), for a period of 14 days.
The procedure described by Ocaranza et al. (Hypertension 48:572-8, 2006) was followed. Briefly, total RNA was isolated from the aorta using the trizol method and quantified by spectroscopy at 260 nm/280 nm. The cDNA was obtained by reverse transcription from 1.5 μg of total RNA treated with DNAse. […] The band intensity was quantified by densitometry and normalized to the 18S ribosomal RNA band.

The subject of assay [5] is collagen I. As to the kind of experiment: Angiotensin II infusion model: collagen I protein levels in the aortic wall by Western blot. Format: in vivo, rat. As to conditions: angiotensin II-hypertensive rats. Here is the method:
as §3, §2
Background: A western blot detects proteins with antibodies after separation by electrophoresis.

Assay [6] concerns rat mesenteric arteries. In words: Contractility studies in perfused, pressurized mesenteric arteries. As to conditions: arteries with intact endothelium as compared to arteries without endothelium. Here is the method: The change in diameter of rat resistance (mesenteric) arteries was determined, they were then perfused and pressurized under physiological conditions, in response to different substances, according to a methodology previously described (Gonzalez et al. Hypertension 45:853-9, 2005). Briefly, male rats (Sprague Dawley, 150-200 g) were euthanized for dissection of mesenteric vascular territory, avoiding direct manipulation of arterial or venous tissue. Mesenteric small arteries (200-300 micrometers) were isolated, surgically eliminating adventitial tissue under a zoom stereo microscope (Olympus SZ61). The arteries were perfused intraluminally into a thermoregulated bath at controlled pressure and flow, with perfusion solution (modified Krebs, KRB) of the following composition, in mmol/L: NaCl, 130; CaCl2, 2.5; NaHCO3, 25; MgSO4, 1.2; NaH2PO4, 1.2; KCl, 4.7; glucose, 5.5, pH 7.4. Before use, KRB was gassed with a mixture of 95% O2 and 5% CO2. For perfusion, the artery was cannulated with a glass micropipette (outer diameter 164μ), secured with 5-0 silk suture. The arteries were perfused with 10-20 μL/min KRB, so as to achieve transmural pressure of 60 mmHg. After a rest period of 20 minutes, each artery was incubated in the presence of a vasoconstrictor (100 μM phenylephrine) for two minutes and an endothelial NO production agonist (1 μM acetylcholine). […]

For DRVYIHPFH, in assay [1], the “# Positive cells (ED-1)” value was 0-20; the “Assigned value (ventricular content of ED-1)” value is 1^# (Low number of ED1 and isolated). Moreover, the “decrease of TGFβ-1 levels” value in assay [2] is given as 47%. For the same sequence, in assay [3], the “reduction of the increase of collagen in the aorta wall” value is reported as 54%. In assay [4], the “reduction of TGF-β mRNA levels” value was determined as 62.5%. For the same sequence, the “prevention of the increase of collagen in the aortic wall” value in assay [5] came out at 60%. Also, the “diameter of resistance arteries” value in assay [6] is listed as “increased in a dose-dependent manner”.

Values taken from patent US9511120B2, “Use of the angiotensin-(1-9) peptide or derivatives thereof, use of vectors overexpressing the ACE2 enzyme that produces angiotensin-(1-9) for preparing medicaments useful for preventing, reverting, inhibiting and/or reducing hypertension and/or inducing vasodilation” (PONTIFICA UNIVERSIDAD CATÓLICA DE CHILE, priority 2012, dated 2016).
